# From US20130338216A1, “DEUTERATED AND/OR FLUORINATED TAXANE DERIVATIVES” (NEKTAR THERAPEUTICS, priority 2010, published 2013)
# What was measured:
# [1] = tested on: NCI-H460 cell line; test: In vitro cytotoxicity, CellTiter-Glo cell viability, NCI-H460; type: cell-based; conditions: Homo sapiens, 72 hours of exposure
# Procedure: (§1) Experimental Procedure: NCI-H460, A549, and MDA-MB-231 cell lines were obtained from ATCC and cultured in RPMI-1640 medium supplemented with 2 mM L-glutamine dipeptide and 10% fetal bovine serum (FBS). For assays, cells were seeded in 96-well plates at 5,000 cells per well in RMPI-1640 medium supplemented with 2 mM L-glutamine dipeptide and 10% FBS. All cells were seeded in a total volume of 50 μL, and placed in a 37° C. humidified 5% CO2 cell culture incubator overnight. […] Cell viability was assessed using the CellTiter-Glo Luminescent Cell Viability Assay (Promega) according to the manufacturer's directions. Briefly, plates were removed from the incubator and placed on the bench at room temperature for 30 minutes. Plates were not stacked. Following the 30 minute incubation period at room temperature, 100 μL of CellTiter-Glo reagent were added to each well on the plate and mixed for two minutes, followed by a further ten minutes incubation at room temperature. Luminescence was then recorded using a PerkinElmer Microbeta scintillation and luminescence counter (TriLux). At the same time as drug exposure, a CellTiter-Glo assay was carried out on one plate of each cell line to obtain 0 hr counts for the assay. Following a 72 hour exposure to drugs, a CellTiter-Glo assay was performed on all remaining plates.
# [2] = tested on: MDA-MB-231 cell line; test: In vitro cytotoxicity, CellTiter-Glo cell viability, MDA-MB-231; type: cell-based; conditions: Homo sapiens, 72 hours of exposure
# Procedure: as §1
# [3] = tested on: A549 cell line; test: In vitro cytotoxicity, CellTiter-Glo cell viability, A549; type: cell-based; conditions: Homo sapiens, 72 hours of exposure
# Procedure: as §1
# [4] = Maximum tolerated dose (MTD) study in athymic mice; conditions: for MTD at 30 day: female, athymic nu/nu, mouse, in vivo, iv, athymic nu/nu mice
# Procedure: Mice were observed daily for clinical signs and body weights were recorded on days 1-5, 7, 9, 11, 13, and then biweekly until the end of study. All procedures were conducted in compliance with IACUC requirements. Compound dosing was terminated for any group in which mean weight loss exceeded 20% or >10% of animals died. Moribund animals were euthanized and all animals were euthanized at end of study (day 30).
# [5] = In vitro metabolic stability in human liver microsomes; type: in vitro ADME; conditions: both sexes, pH 7.4; human liver microsomes 0.5 mg/mL, 1 μM test article, up to 30 minutes, 37° C.; read-out: intrinsic clearance rate
# Procedure: (§2) Methods: Previously frozen human liver microsomes (mixed gender pool; Xenotech H0630) were thawed in a 37° C. water bath and put on ice immediately after thawing. […] The incubation mixture (500 μL) was prepared in individual silanized tube (CTS-13100) for each time point and for each test article. Incubation was terminated by adding 500 μL cold water:acetonitrile 1:1 (v/v) spiked with 400 nM paclitaxel (internal standard) to the tube. […] The slope of the linear regression from log percentage remaining versus incubation time relationships (−k) was used in the calculation of intrinsic clearance: Intrinsic clearance (CLint)=k*(μL incubation/mg of microsomal protein).
# [6] = tested on: cytochrome P450 CYP3A4 and CYP3A5; conditions: by cytochrome P450 CYP3A4 and CYP3A5 isoenzymes; cited from earlier work
# [7] = tested on: boiled liver microsomes; test: Stability in boiled liver microsomes (control incubation); type: in vitro ADME
# Procedure: as §2
structure (smiles),measurement,setting,value
[2H]C([2H])([2H])C(OC(=O)N[C@@H](c1ccccc1)[C@@H](O)C(=O)O[C@H]1C[C@@]2(O)[C@@H](OC(=O)c3ccccc3)C3C(C)(C(=O)[C@H](O)C(=C1C)C2(C)C)[C@@H](O)CC1OC[C@]13OC(C)=O)(C([2H])([2H])[2H])C([2H])([2H])[2H] (stereo partly drawn) [d9-Docetaxel],IC50,[1],2.68 nM
same,IC50,[2],25.2 nM
same,IC50,[3],1.6 nM
same,Treatment-Related Deaths,"[4]; Group 1, 10 mg/kg iv, qwk x 3, N 5",0
same,BW Nadir,"[4]; Group 2, 20 mg/kg iv, qwk x 3",−5.6%
same,Treatment-Related Deaths,"[4]; Group 2, 20 mg/kg iv, qwk x 3, N 5",0
same,BW Nadir,"[4]; Group 3, 40 mg/kg iv, qwk x 3",−21.9%
same,Treatment-Related Deaths,"[4]; Group 3, 40 mg/kg iv, qwk x 3, N 5",0
same,BW Nadir,"[4]; Group 4, 7.5 mg/kg iv, qwk x 3",−10.6%
same,Treatment-Related Deaths,"[4]; Group 4, 7.5 mg/kg iv, qwk x 3 in Table 2, N 5",0
same,BW Nadir,"[4]; Group 5, 15 mg/kg iv, qwk x 3",−12.3%
same,Treatment-Related Deaths,"[4]; Group 5, 15 mg/kg iv, qwk x 3 in Table 2, N 5",0
same,BW Nadir,"[4]; Group 6, 30 mg/kg iv, qwk x 3",−29.6%
same,Mean Day of Death,"[4]; Group 6, 30 mg/kg iv, qwk x 3",11.5
same,Treatment-Related Deaths,"[4]; Group 6, 30 mg/kg iv, qwk x 3 in Table 2, N 5",2
same,MTD at 30 day,"[4]; q3d×3, iv",~15 mg/kg
same,MTD at 30 day,"[4]; qwk×3, iv",~30 mg/kg
"CC(=O)O[C@@]12CO[C@@H]1C[C@H](O)[C@@]1(C)C(=O)[C@H](O)C3=C(C)[C@@H](OC(=O)[C@H](O)[C@@H](NC(=O)OC(C)(C)C)c4ccccc4)C[C@@](O)([C@@H](OC(=O)c4ccccc4)[C@H]21)C3(C)C [Docetaxel, reference compound]",IC50,[1],3.52 nM
same,IC50,[2],35.2 nM
same,IC50,[3],1.82 nM
CO[C@H]1C(=O)[C@]2(C)[C@@H](OC)C[C@H]3OC[C@@]3(OC(C)=O)[C@H]2[C@H](OC(=O)c2ccccc2)[C@]2(O)C[C@H](OC(=O)[C@H](O)[C@@H](NC(=O)OC(C)(C)C)c3ccccc3)C(C)=C1C2(C)C [Cabazitaxel],microsomal CLint at 1 μM,[5],410 µL/min/mg
same,extensively metabolized in the liver,[6],> 95%
same,docetaxel formation after incubation with boiled liver microsomes,[7],not observed
same,stability during incubation with boiled liver microsomes,"[7]; 1 μM, up to 30 minutes",fairly stable
